Laboratory results from US6737383B1, “Herbicidal oxadiazolidines” (priority 1999, dated 2004).

Tests used:
[1] = system: soybean; experiment: Test B pre/postemergence soybean; assay type: in vivo, Glycine max
Method in brief: (§1)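 Herbicidal effect was estimated by eye on a ten-point control scale after plants spent twelve to sixteen days in a greenhouse following soil or foliar treatment. Foliar sprays targeted plants at one to four leaves; all doses were formulated in a non-phytotoxic solvent with surfactant.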

[2] = system: corn; experiment: Test B pre/postemergence corn; assay type: in vivo, Zea mays
Method in brief: as §1

[3] = system: pigweed; experiment: Test B pre/postemergence pigweed; assay type: in vivo, Amaranthus retroflexus
Method in brief: as §1

[4] = system: purple nutsedge; experiment: Test B pre/postemergence purple nutsedge; assay type: in vivo, Cyperus rotundus
Method in brief: as §1

[5] = system: crabgrass; experiment: Test B pre/postemergence crabgrass; assay type: in vivo, Digitaria sanguinalis
Method in brief: as §1

[6] = system: rape; experiment: Test B pre/postemergence rape; assay type: in vivo, Brassica napus
Method in brief: as §1

[7] = system: surinam grass; experiment: Test B pre/postemergence surinam grass; assay type: in vivo, Brachiaria decumbens
Method in brief: as §1

[8] = system: sugar beet; experiment: Test B pre/postemergence sugar beet; assay type: in vivo, Beta vulgaris
Method in brief: as §1

[9] = system: rice; experiment: Test B flood test rice; assay type: in vivo, Oryza sativa
Method in brief: (§2)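 Plants were grown to the 2-leaf stage before treatment with test chemical, then held in a greenhouse for twelve to sixteen days. Injury was visually rated against untreated controls on a 0–10 scale, where 0 is no effect and 10 is complete control.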

[10] = system: giant foxtail; experiment: Test B pre/postemergence giant foxtail; assay type: in vivo, Setaria faberii
Method in brief: as §1

[11] = system: duck salad; experiment: Test B flood test duck salad; assay type: in vivo, Heteranthera limosa
Method in brief: as §2

[12] = system: cocklebur; experiment: Test B pre/postemergence cocklebur; assay type: in vivo, Xanthium strumarium
Method in brief: as §1

[13] = system: wheat; experiment: Test B pre/postemergence wheat; assay type: in vivo, Triticum aestivum
Method in brief: as §1

[14] = system: smallflower flatsedge; experiment: Test B flood test smallflower flatsedge; assay type: in vivo, Cyperus difformis
Method in brief: as §2

[15] = system: blackgrass; experiment: Test B pre/postemergence blackgrass; assay type: in vivo, Alopecurus myosuroides
Method in brief: as §1

[16] = system: bamyardgrass; experiment: Test B flood test barnyardgrass; assay type: in vivo, Echinochloa crus-galli
Method in brief: as §2

[17] = Postemergence, Rate 125 g/ha, scale 0 to 10, 0 is no effect, 10 is complete control
[18] = Preemergence, Rate 62 g/ha, scale of 0 to 10 where 0 is no effect and 10 is complete control
[19] = Preemergence, Rate 250 g/ha, scale of 0 to 10 where 0 is no effect and 10 is complete control
[20] = Preemergence, Rate 500 g/ha, scale of 0 to 10 where 0 is no effect and 10 is complete control
[21] = Rate 62 g/ha, Postemergence, scale 0 to 10 (0 no effect, 10 complete control)
[22] = Rate 500 g/ha, Postemergence, scale 0 to 10, 0 no effect, 10 complete control
[23] = Rate 250 g/ha, Postemergence, scale of 0 to 10 where 0 is no effect and 10 is complete control
[24] = Rate 62 g/ha, headed Pre-emergence (flood test species), scale 0 to 10 (0 no effect, 10 complete control)
[25] = Rate 125 g/ha, Pre-emergence, flood test species, scale 0 to 10 where 0 is no effect and 10 is complete control
[26] = Rate 250 g/ha, Pre-emergence, flood-test species, scale 0 to 10, 0 is no effect, 10 is complete control
[27] = Rate 500 g/ha, Pre-emergence, flood test species, scale 0 to 10 (0 no effect, 10 complete control)

Cc1ccccc1-n1c(=O)on(C(=O)N(c2ccc(Cl)cc2)C(C)C2CC2)c1=O (centres unmarked) [Compound 330]
Plant response rating, Soybean [1, 17]: 1
Soybean plant response rating [1, 18]: 0
Soybean plant response rating (0 to 10 scale) ([1]; Preemergence, Rate 125 g/ha): 0
Soybean plant response rating [1, 19]: 0
Soybean plant response rating [1, 20]: 0
Soybean plant response rating [1, 21]: 1
Plant response rating, Soybean [1, 22]: 1
Plant response rating, Corn [2, 17]: 0
Corn plant response rating [2, 18]: 0
Corn plant response rating (0 to 10 scale) ([2]; Preemergence, Rate 125 g/ha): 0
Corn plant response rating [2, 19]: 0
Corn plant response rating [2, 20]: 0
Corn plant response rating [2, 21]: 0
Plant response rating, Corn [2, 22]: 0
Plant response rating, Redroot pigweed [3, 17]: 0
Redroot pigweed plant response rating [3, 18]: 0
Redroot pigweed plant response rating (0 to 10 scale) ([3]; Preemergence, Rate 125 g/ha): 0
Redroot pigweed plant response rating [3, 19]: 0
Redroot pigweed plant response rating [3, 20]: 0
Redroot pigweed plant response rating [3, 21]: 0
Plant response rating, Redroot pigweed [3, 22]: 0
Plant response rating, Nutsedge [4, 17]: 0
Nutsedge plant response rating [4, 18]: 0
Nutsedge plant response rating (0 to 10 scale) ([4]; Preemergence, Rate 125 g/ha): 0
Nutsedge plant response rating [4, 19]: 0
Nutsedge plant response rating [4, 20]: 0
Nutsedge plant response rating [4, 21]: 0
Plant response rating, Nutsedge [4, 22]: 0
Plant response rating, Crabgrass [5, 17]: 0
Crabgrass plant response rating [5, 18]: 0
Crabgrass plant response rating (0 to 10 scale) ([5]; Preemergence, Rate 125 g/ha): 0
Crabgrass plant response rating [5, 19]: 0
Crabgrass plant response rating [5, 20]: 0
Crabgrass plant response rating [5, 21]: 0
Plant response rating, Crabgrass [5, 22]: 0
Plant response rating, Rape [6, 17]: 0
Rape plant response rating [6, 18]: 0
Rape plant response rating (0 to 10 scale) ([6]; Preemergence, Rate 125 g/ha): 0
Rape plant response rating [6, 19]: 0
Rape plant response rating [6, 20]: 0
Rape plant response rating [6, 21]: 0
Plant response rating, Rape [6, 22]: 0
Plant response rating, B. signalgrass [7, 17]: 0
B. signalgrass plant response rating [7, 18]: 0
B. signalgrass plant response rating (0 to 10 scale, 0 is no effect, 10 is complete control) ([7]; Preemergence, Rate 125 g/ha): 0
B. signalgrass plant response rating [7, 19]: 0
B. signalgrass plant response rating [7, 20]: 0
B. signalgrass plant response rating [7, 21]: 0
Plant response rating, B. signalgrass [7, 23]: 0
Plant response rating, B. signalgrass [7, 22]: 0
Plant response rating, Sugarbeets [8, 17]: 0
Sugarbeets plant response rating [8, 18]: 0
Sugarbeets plant response rating (0 to 10 scale) ([8]; Preemergence, Rate 125 g/ha): 0
Sugarbeets plant response rating [8, 19]: 0
Sugarbeets plant response rating [8, 20]: 0
Sugarbeets plant response rating [8, 21]: 0
Plant response rating, Sugarbeets [8, 22]: 0
Rice plant response rating [9, 24]: 0
Rice plant response rating [9, 25]: 0
Rice plant response rating [9, 26]: 0
Rice plant response rating [9, 27]: 0
Plant response rating, Giant foxtail [10, 17]: 0
Giant foxtail plant response rating [10, 18]: 0
Giant foxtail plant response rating (0 to 10 scale) ([10]; Preemergence, Rate 125 g/ha): 0
Giant foxtail plant response rating [10, 19]: 0
Giant foxtail plant response rating [10, 20]: 0
Giant foxtail plant response rating [10, 21]: 0
Plant response rating, Giant foxtail [10, 22]: 0
Ducksalad plant response rating [11, 24]: 0
Ducksalad plant response rating [11, 25]: 0
Ducksalad plant response rating [11, 26]: 0
Ducksalad plant response rating [11, 27]: 0
Plant response rating, Cocklebur [12, 17]: 0
Cocklebur plant response rating [12, 18]: 0
Cocklebur plant response rating (0 to 10 scale) ([12]; Preemergence, Rate 125 g/ha): 0
Cocklebur plant response rating [12, 19]: 0
Cocklebur plant response rating [12, 20]: 0
Cocklebur plant response rating [12, 21]: 0
Plant response rating, Cocklebur [12, 22]: 0
Plant response rating, Wheat [13, 17]: 0
Wheat plant response rating [13, 18]: 0
Wheat plant response rating (0 to 10 scale) ([13]; Preemergence, Rate 125 g/ha): 0
Wheat plant response rating [13, 19]: 0
Wheat plant response rating [13, 20]: 0
Wheat plant response rating [13, 21]: 0
Plant response rating, Wheat [13, 22]: 0
S. Flatsedge plant response rating [14, 24]: 0
S. Flatsedge plant response rating [14, 25]: 0
S. Flatsedge plant response rating [14, 26]: 0
S. Flatsedge plant response rating [14, 27]: 0
Plant response rating, Blackgrass [15, 17]: 0
Blackgrass plant response rating [15, 18]: 0
Blackgrass plant response rating (0 to 10 scale) ([15]; Preemergence, Rate 125 g/ha): 0
Blackgrass plant response rating [15, 19]: 0
Blackgrass plant response rating [15, 21]: 0
Plant response rating, Blackgrass [15, 23]: 0
Plant response rating, Blackgrass [15, 22]: 0
Barnyardgrass plant response rating [16, 24]: 0
Barnyardgrass plant response rating [16, 25]: 0
Barnyardgrass plant response rating [16, 26]: 0
Barnyardgrass plant response rating [16, 27]: 0
